Test results as given in patent US10513521B2, “Compositions and methods for inhibiting BMP” (The Brigham and Women's Hospital, Inc., priority 2014, dated 2019).
Residue numbers refer to the chain shown, from its start. Where two headings read alike, the source gives them in different places.

Experiments:
ALK2 [1] = target: T1, ALK2 (Mus musculus, UniProt P37172); assay: HTRF pSMAD1 cell-based ALK2 assay (C2C12 cells, BMP6 as agonist)
T1 construct: The C2C12 cell line was selected for the measurement of ALK2 activity using BMP6 as the agonist; host or cells: C2C12
T1 sequence (P37172 21-509): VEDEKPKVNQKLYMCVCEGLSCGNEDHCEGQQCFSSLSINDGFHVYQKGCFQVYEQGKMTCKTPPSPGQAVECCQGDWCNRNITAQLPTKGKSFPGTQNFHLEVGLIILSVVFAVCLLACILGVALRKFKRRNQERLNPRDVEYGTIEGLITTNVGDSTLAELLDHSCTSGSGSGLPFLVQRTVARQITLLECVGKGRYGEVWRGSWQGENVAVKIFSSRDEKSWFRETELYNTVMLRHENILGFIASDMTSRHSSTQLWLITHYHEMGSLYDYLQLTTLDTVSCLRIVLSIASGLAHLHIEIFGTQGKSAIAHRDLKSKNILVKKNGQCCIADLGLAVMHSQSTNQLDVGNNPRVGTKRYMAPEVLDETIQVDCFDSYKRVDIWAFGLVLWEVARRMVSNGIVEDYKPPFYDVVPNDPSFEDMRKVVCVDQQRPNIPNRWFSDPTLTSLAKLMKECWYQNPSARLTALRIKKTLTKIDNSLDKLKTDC
Summary of the method: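 Phospho-SMAD1 HTRF readout, detection incubated overnight at room temperature. Before that: starved cells in 0.1% FBS for 4 h, 30 min compound pretreatment, then 30 min agonist, BMP6 on C2C12 or BMP9 on BAOEC.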

[2] = Cell-based assay, TGFb1 (Cell IC50)
ALK1 = ALK1 (Homo sapiens, UniProt P37023); assay: TR-FRET enzymatic ALK kinase assay, ALK1
ALK1, sequence (P37023 22-503): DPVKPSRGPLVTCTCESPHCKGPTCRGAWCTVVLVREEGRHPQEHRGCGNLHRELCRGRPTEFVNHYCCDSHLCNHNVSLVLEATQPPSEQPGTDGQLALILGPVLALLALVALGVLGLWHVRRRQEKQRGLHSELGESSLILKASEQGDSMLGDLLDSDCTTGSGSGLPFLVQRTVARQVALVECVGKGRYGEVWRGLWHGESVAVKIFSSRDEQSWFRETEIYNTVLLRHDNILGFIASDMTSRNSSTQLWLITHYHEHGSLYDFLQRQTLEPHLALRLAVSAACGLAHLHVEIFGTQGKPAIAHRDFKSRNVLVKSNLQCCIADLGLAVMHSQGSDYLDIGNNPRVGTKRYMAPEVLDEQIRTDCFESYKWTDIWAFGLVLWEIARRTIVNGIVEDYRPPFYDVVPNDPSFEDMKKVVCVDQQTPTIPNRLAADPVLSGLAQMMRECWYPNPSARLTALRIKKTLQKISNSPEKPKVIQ
Method: (§1) Briefly, the ALKs enzymatic assay was initiated by dispense 2.5 μl enzyme in 1× kinase reaction buffer. The assay plate was then added with compounds followed by incubation at room temperature for 10 minutes. Then 2.5 μl/well substrate was added.

ALK3 = ALK3 (Homo sapiens, UniProt P36894); assay: TR-FRET enzymatic ALK kinase assay, ALK3
ALK3, sequence (P36894 24-532): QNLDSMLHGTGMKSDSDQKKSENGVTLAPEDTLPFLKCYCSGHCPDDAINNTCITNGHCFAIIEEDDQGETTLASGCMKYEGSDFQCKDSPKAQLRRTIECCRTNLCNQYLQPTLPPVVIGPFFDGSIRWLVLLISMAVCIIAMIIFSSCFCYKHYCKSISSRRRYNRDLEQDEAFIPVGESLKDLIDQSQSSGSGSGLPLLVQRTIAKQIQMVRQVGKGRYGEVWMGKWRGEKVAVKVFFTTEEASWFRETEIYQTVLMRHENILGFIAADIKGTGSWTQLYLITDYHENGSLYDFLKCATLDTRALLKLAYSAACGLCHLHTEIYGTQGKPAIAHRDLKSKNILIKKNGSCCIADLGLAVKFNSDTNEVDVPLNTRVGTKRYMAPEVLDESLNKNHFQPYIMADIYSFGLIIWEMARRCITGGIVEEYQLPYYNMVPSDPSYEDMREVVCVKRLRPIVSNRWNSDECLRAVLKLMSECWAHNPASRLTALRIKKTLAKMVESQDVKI
Method: as §1

ALK6 = ALK6 (Homo sapiens, UniProt O00238); assay: TR-FRET enzymatic ALK kinase assay, ALK6
ALK6, sequence (O00238 14-502): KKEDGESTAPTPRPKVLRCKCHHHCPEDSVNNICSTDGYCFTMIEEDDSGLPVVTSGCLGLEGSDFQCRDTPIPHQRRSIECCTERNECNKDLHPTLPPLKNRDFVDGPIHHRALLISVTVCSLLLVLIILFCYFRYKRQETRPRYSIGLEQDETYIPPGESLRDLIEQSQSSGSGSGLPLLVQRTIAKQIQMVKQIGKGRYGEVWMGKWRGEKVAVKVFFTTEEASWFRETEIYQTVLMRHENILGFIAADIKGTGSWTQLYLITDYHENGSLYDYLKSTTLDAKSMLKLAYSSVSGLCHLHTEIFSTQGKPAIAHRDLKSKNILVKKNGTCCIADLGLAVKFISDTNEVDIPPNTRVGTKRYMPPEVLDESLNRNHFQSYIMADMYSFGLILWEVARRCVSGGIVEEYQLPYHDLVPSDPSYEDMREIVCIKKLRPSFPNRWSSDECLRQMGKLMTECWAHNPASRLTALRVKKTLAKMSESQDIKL
Method: as §1

ALK2 [3] = target: T2, ALK2 (Homo sapiens, UniProt Q04771); assay: TR-FRET enzymatic ALK kinase assay, ALK2
T2 sequence (Q04771 21-509): T1 sequence (P37172 21-509) with V1M, Q10P, I121L, E162D, S310P
Method: as §1

ALK5 = target: T3, ALK5 (Homo sapiens, UniProt P36897); assay: TR-FRET enzymatic ALK kinase assay, ALK5
T3 sequence (P36897 34-503): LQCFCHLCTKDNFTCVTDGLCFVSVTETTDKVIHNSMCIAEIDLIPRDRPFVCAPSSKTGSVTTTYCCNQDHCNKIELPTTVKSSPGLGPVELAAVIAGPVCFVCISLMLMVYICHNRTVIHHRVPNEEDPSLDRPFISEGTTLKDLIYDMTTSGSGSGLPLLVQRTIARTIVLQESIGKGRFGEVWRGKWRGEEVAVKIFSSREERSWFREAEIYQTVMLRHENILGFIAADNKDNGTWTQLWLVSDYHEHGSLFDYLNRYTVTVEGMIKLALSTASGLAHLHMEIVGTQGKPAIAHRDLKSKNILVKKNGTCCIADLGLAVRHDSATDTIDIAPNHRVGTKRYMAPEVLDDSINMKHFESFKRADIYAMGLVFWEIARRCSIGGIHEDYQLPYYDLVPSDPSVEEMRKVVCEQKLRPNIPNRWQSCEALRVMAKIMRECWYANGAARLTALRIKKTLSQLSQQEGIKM
Method: Six ALK kinase enzyme assays were developed for determination of compound activities on ALK1, ALK2, ALK3, ALK4, ALK5 and ALK6.
as §1

ALK4 = target: T4, ALK4 (Homo sapiens, UniProt P36896); assay: TR-FRET enzymatic ALK kinase assay, ALK4
T4 sequence (P36896 24-505): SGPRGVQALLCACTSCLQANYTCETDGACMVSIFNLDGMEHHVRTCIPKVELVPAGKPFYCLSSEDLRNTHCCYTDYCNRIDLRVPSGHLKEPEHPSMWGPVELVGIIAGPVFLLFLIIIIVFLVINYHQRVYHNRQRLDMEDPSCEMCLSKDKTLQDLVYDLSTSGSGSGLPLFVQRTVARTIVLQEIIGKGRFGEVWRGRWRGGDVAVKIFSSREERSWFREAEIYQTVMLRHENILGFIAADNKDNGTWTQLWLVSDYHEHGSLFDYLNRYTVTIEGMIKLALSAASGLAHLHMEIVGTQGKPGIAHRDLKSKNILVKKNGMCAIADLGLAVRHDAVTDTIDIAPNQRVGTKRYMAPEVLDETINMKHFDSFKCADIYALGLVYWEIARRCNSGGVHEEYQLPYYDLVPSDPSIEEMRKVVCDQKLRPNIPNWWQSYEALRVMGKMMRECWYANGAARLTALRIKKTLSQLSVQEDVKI
Method: as §1

[4] = cell-based assay, BMP6, read-out: Cell IC50 BMP6
[5] = HTRF assay, BMP6 as agonist, C2C12 cells, read-out: BMP6 HTRF

| SMILES | IC50 (ALK2 [1]; [4]) [nM] | IC50 [2] [nM] | IC50 (ALK1) [nM] | IC50 (ALK3) [nM] | IC50 (ALK6) [nM] | IC50 (ALK2 [3]) [nM] | IC50 (ALK5) [nM] | IC50 (ALK4) [nM] | IC50 (ALK2 [1]; [5]) [nM] |
| --- | --- | --- | --- | --- | --- | --- | --- | --- | --- |
| O=C(O)c1ccc(-c2cnn3cc(-c4ccc(N5CCNCC5)cc4)cnc23)c2ccccc12 [Compound 1, 4-(6-(4-(piperazin-1-yl)phenyl)pyrazolo[1,5-a]pyrimidin-3-yl)-1-naphthoic acid] | 8660 | 100000 | 186 | 984 | 1740 | 37 | – | – | – |
| CNC(=O)c1ccc(-c2cnn3cc(-c4ccc(N5CCNCC5)cc4)cnc23)c2ccccc12 [Compound 3, N-methyl-4-(6-(4-(piperazin-1-yl)phenyl)pyrazolo[1,5-a]pyrimidin-3-yl)-1-naphthamide] | 3190 | 15300 | 19600 | 18200 | – | 1760 | – | – | – |
| CN(C)C(=O)c1ccc(-c2cnn3cc(-c4ccc(N5CCNCC5)cc4)cnc23)c2ccccc12 [Compound 4, N,N-dimethyl-4-(6-(4-(piperazin-1-yl)phenyl)pyrazolo[1,5-a]pyrimidin-3-yl)-1-naphthamide] | 593 | 10600 | 15400 | – | 76400 | 2830 | – | – | – |
| O=C(O)c1cccc2c(-c3cnn4cc(-c5ccc(N6CCNCC6)cc5)cnc34)cccc12 [Compound 5, 5-(6-(4-(piperazin-1-yl)phenyl)pyrazolo[1,5-a]pyrimidin-3-yl)-1-naphthoic acid] | 100000 | 100000 | 45 | 17 | 17 | 10 | – | – | – |
| N/C(=N/O)c1ccc(-c2cnn3cc(-c4ccc(N5CCNCC5)cc4)cnc23)cc1 [Compound 13, N′-hydroxy-4-(6-(4-(piperazin-1-yl)phenyl)pyrazolo[1,5-a]pyrimidin-3-yl)benzimidamide] | 380 | 6820 | 276 | 880 | – | 38 | – | – | – |
| C[C@@H]1CNC[C@H](C)N1c1ccc(-c2cnc3c(-c4ccc(CN)c5ccccc45)cnn3c2)cc1 [Compound 23, (4-(6-(4-((2R,6S)-2,6-dimethylpiperazin-1-yl)phenyl)pyrazolo[1,5-a]pyrimidin-3-yl)naphthalen-1-yl)methanamine] | 33 | 10800 | 9600 | – | – | 5310 | – | – | – |
| c1cc(-c2nn[nH]n2)cc(-c2cnn3cc(-c4ccc(CCN5CCCCC5)cc4)cnc23)c1 [Compound 89, 3-(3-(2H-tetrazol-5-yl)phenyl)-6-(4-(2-(piperidin-1-yl)ethyl)phenyl)pyrazolo[1,5-a]pyrimidine] | – | 12400 | 7100 | > 10000 | > 10000 | 14 | > 10000 | > 10000 | – |
| CS(=O)(=O)c1cccc(-c2cnn3cc(-c4ccc(CN5CCCC5)cc4)cnc23)c1 [Compound 164, 3-(3-(methylsulfonyl)phenyl)-6-(4-(pyrrolidin-1-ylmethyl)phenyl)pyrazolo[1,5-a]pyrimidine] | – | – | 33 | 390 | 9800 | 3 | 8200 | 4400 | 180 |
| CC(O)c1cccc(-c2cnn3cc(-c4ccc(CN5CCCC5)cc4)cnc23)c1 (centres unmarked) [Compound 165, 1-(3-(6-(4-(pyrrolidin-1-ylmethyl)phenyl)pyrazolo[1,5-a]pyrimidin-3-yl)phenyl)ethanol] | – | – | 32 | 140 | 3100 | 3 | 5900 | 1300 | 240 |
| CC(O)c1cccc(-c2cnn3cc(-c4ccc(OC5(CN6CCCC6)CC5)cc4)cnc23)c1 (centres unmarked) [Compound 167, 1-(3-(6-(4-(1-(pyrrolidin-1-ylmethyl)cyclopropoxy)phenyl)pyrazolo[1,5-a]pyrimidin-3-yl)phenyl)ethanol] | – | – | 600 | 1100 | 9300 | 49 | > 10000 | > 10000 | 370 |
